From ChEMBL document CHEMBL1133413, “Selection of a potent inhibitor of trihydroxynaphthalene reductase by sorting disease control data” (Bioorg Med Chem Lett, 2000) come the findings set out here.

For the test, the target named is T1, Scytalone dehydratase (Magnaporthe oryzae (strain 70-15 / FGSC 8958) (Rice blast fungus)(Pyricularia oryzae), UniProt P56221).
T1 sequence (P56221 whole entry): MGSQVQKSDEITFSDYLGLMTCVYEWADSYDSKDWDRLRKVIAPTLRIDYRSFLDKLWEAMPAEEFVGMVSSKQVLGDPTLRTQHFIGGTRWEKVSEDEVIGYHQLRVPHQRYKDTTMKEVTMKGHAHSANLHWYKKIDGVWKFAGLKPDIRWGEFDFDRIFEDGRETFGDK
Briefly: Compound was evaluated for its inhibition constant against scytalone dehydratase (SD). Set-up: species or system Pyricularia grisea.

pKi: −log10 of the molar value.

By pKi is commonly meant −log10 of the Ki, conventionally taken in molar units. Regarding `O=C(/C=C/c1ccccc1)NC(=S)Nc1ccc(S(=O)(=O)Nc2cc(F)ccc2F)cc1`, the pKi was 8.19.
